ChEMBL document CHEMBL1201862, “PubChem BioAssay data set” (2004)
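The compound was tested at five concentrations on cells cultured in 96-well plates, with a 48-hour exposure period. GI50 marks 50% less growth.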 Activity calls are given as the source filed them. Cut-off read from the data, not from the text of the source: active = GI50 up to about 1.1 µM and inactive = higher.

Columns and labels:
Assay in all cases: NCI anticancer screen, dose series, 48 h
MDA-MB-231 = tested on: MDA-MB-231
K562 = tested on: K562
HOP-62 = tested on: HOP-62
MDA-N = tested on: MDA-N
SW-620 = tested on: SW-620
HCT-15 = tested on: HCT-15
SK-MEL-5 = tested on: SK-MEL-5
MOLT-4 = tested on: MOLT-4
OVCAR-3 = tested on: OVCAR-3
Malme-3M = tested on: Malme-3M
SF-295 = tested on: SF-295
EKVX = tested on: EKVX
NCI-H460 = tested on: NCI-H460
SN12C = tested on: SN12C
HCT-116 = tested on: HCT-116
COLO 205 = tested on: COLO 205
HCC 2998 = tested on: HCC 2998
LOX IMVI = tested on: LOX IMVI
OVCAR-5 = tested on: OVCAR-5
PC-3 = tested on: PC-3

Q: For CC(C)CC(=O)NC(C(=O)NC(C(=O)NC(CC(C)C)C(O)CC(=O)NC(C)C(=O)NC(CC(C)C)C(O)CC(=O)O)C(C)C)C(C)C (stereo not given), which GI50 (MDA-MB-231) is on record?
A: > 100 µM (inactive)

Q: And the GI50 (K562)?
A: > 100 µM (inactive)

Q: And the GI50 (HOP-62)?
A: > 100 µM (inactive)

Q: What about the GI50 (MDA-N) of the same compound?
A: > 100 µM (inactive)

Q: What about the GI50 (SW-620) of the same compound?
A: > 100 µM (inactive)

Q: And the GI50 (HCT-15)?
A: > 100 µM

Q: And the GI50 (SK-MEL-5)?
A: > 100 µM (inactive)

Q: And the GI50 (MOLT-4)?
A: > 100 µM (inactive)

Q: What about the GI50 (OVCAR-3) of the same compound?
A: > 100 µM (inactive)

Q: And the GI50 (Malme-3M)?
A: > 100 µM (inactive)

Q: And the GI50 (SF-295)?
A: > 100 µM (inactive)

Q: What about the GI50 (EKVX) of the same compound?
A: > 100 µM (inactive)

Q: What about the GI50 (NCI-H460) of the same compound?
A: > 100 µM (inactive)

Q: What about the GI50 (SN12C) of the same compound?
A: > 100 µM (inactive)

Q: What about the GI50 (HCT-116) of the same compound?
A: > 100 µM (inactive)

Q: What about the GI50 (COLO 205) of the same compound?
A: > 100 µM (inactive)

Q: And the GI50 (HCC 2998)?
A: > 100 µM (inactive)

Q: What about the GI50 (LOX IMVI) of the same compound?
A: > 100 µM (inactive)

Q: What about the GI50 (OVCAR-5) of the same compound?
A: > 100 µM (inactive)

Q: What about the GI50 (PC-3) of the same compound?
A: > 100 µM (inactive)

Q: What does the source list for CC(O)CCCOC(c1ccccc1)(c1ccccc1)c1ccccc1 (stereo not given)?
A: GI50 (MDA-MB-231): 17.3 µM (inactive); GI50 (K562): 22.9 µM (inactive); GI50 (HOP-62): 17.3 µM (inactive); GI50 (MDA-N): 16.8 µM (inactive); GI50 (SW-620): 16.6 µM (inactive); GI50 (HCT-15): 15.4 µM; GI50 (SK-MEL-5): 11.8 µM (inactive); GI50 (MOLT-4): 16.6 µM (inactive); GI50 (OVCAR-3): 14.2 µM (inactive); GI50 (Malme-3M): 14.5 µM (inactive); GI50 (SF-295): 13.8 µM (inactive); GI50 (EKVX): 14.8 µM (inactive); GI50 (NCI-H460): 16.1 µM (inactive); GI50 (SN12C): 16.7 µM (inactive); GI50 (HCT-116): 13.8 µM (inactive); GI50 (COLO 205): 20.1 µM (inactive); GI50 (HCC 2998): 15.3 µM (inactive); GI50 (LOX IMVI): 15.2 µM (inactive); GI50 (OVCAR-5): 16.7 µM (inactive); GI50 (PC-3): 11.5 µM (inactive)

Q: With [O-][N+]1=C2CCC/C(=N/O)C2(O)C2CCCCC21N1CCOCC1 (stereo not given) as the compound, how does the GI50 (MDA-MB-231) read?
A: > 100 µM (inactive)

Q: And the GI50 (K562)?
A: > 100 µM (inactive)

Q: And the GI50 (HOP-62)?
A: > 100 µM (inactive)

Q: And the GI50 (MDA-N)?
A: > 100 µM (inactive)

Q: What about the GI50 (SW-620) of the same compound?
A: > 100 µM (inactive)

Q: And the GI50 (HCT-15)?
A: > 100 µM

Q: What about the GI50 (SK-MEL-5) of the same compound?
A: > 100 µM (inactive)

Q: And the GI50 (MOLT-4)?
A: > 100 µM (inactive)

Q: And the GI50 (OVCAR-3)?
A: > 100 µM (inactive)

Q: And the GI50 (Malme-3M)?
A: > 100 µM (inactive)

Q: What about the GI50 (SF-295) of the same compound?
A: > 100 µM (inactive)

Q: What about the GI50 (EKVX) of the same compound?
A: > 100 µM (inactive)

Q: And the GI50 (NCI-H460)?
A: > 100 µM (inactive)

Q: What about the GI50 (SN12C) of the same compound?
A: > 100 µM (inactive)

Q: And the GI50 (HCT-116)?
A: > 100 µM (inactive)

Q: What about the GI50 (COLO 205) of the same compound?
A: > 100 µM (inactive)

Q: And the GI50 (HCC 2998)?
A: > 100 µM (inactive)

Q: What about the GI50 (LOX IMVI) of the same compound?
A: > 100 µM (inactive)

Q: What about the GI50 (OVCAR-5) of the same compound?
A: > 100 µM (inactive)

Q: And the GI50 (PC-3)?
A: > 100 µM (inactive)

Q: How did the GI50 (MDA-MB-231) turn out when Cc1ccc2c(c1)C(=O)N1CCC[C@H]1C=N2 was run?
A: 19.2 µM (inactive)

Q: And the GI50 (K562)?
A: 7.76 µM (inactive)

Q: And the GI50 (HOP-62)?
A: 27.7 µM (inactive)

Q: What about the GI50 (MDA-N) of the same compound?
A: 19.2 µM (inactive)

Q: And the GI50 (SW-620)?
A: 23.4 µM (inactive)

Q: And the GI50 (HCT-15)?
A: 28.5 µM

Q: What about the GI50 (SK-MEL-5) of the same compound?
A: 11.1 µM (inactive)

Q: What about the GI50 (MOLT-4) of the same compound?
A: 18.8 µM (inactive)

Q: And the GI50 (OVCAR-3)?
A: 19.1 µM (inactive)

Q: What about the GI50 (Malme-3M) of the same compound?
A: 18.7 µM (inactive)

Q: What about the GI50 (SF-295) of the same compound?
A: 31.3 µM (inactive)

Q: And the GI50 (EKVX)?
A: 26.4 µM (inactive)

Q: And the GI50 (NCI-H460)?
A: 20.4 µM (inactive)

Q: And the GI50 (SN12C)?
A: 23 µM (inactive)

Q: What about the GI50 (HCT-116) of the same compound?
A: 30 µM (inactive)

Q: And the GI50 (COLO 205)?
A: 17.6 µM (inactive)

Q: What about the GI50 (HCC 2998) of the same compound?
A: 19.6 µM (inactive)

Q: What about the GI50 (LOX IMVI) of the same compound?
A: 23.6 µM (inactive)

Q: And the GI50 (OVCAR-5)?
A: 28.4 µM (inactive)

Q: What about the GI50 (PC-3) of the same compound?
A: 17.7 µM (inactive)

Q: Which results are given for O=C1Nc2ccccc2[C@]12C[C@H]2c1ccccn1?
A: GI50 (MDA-MB-231): > 100 µM (inactive); GI50 (K562): > 100 µM (inactive); GI50 (HOP-62): > 100 µM (inactive); GI50 (MDA-N): > 100 µM (inactive); GI50 (SW-620): > 100 µM (inactive); GI50 (HCT-15): > 100 µM; GI50 (SK-MEL-5): > 100 µM (inactive); GI50 (MOLT-4): > 100 µM (inactive); GI50 (OVCAR-3): > 100 µM (inactive); GI50 (Malme-3M): > 100 µM (inactive); GI50 (SF-295): > 100 µM (inactive); GI50 (EKVX): > 100 µM (inactive); GI50 (NCI-H460): > 100 µM (inactive); GI50 (SN12C): > 100 µM (inactive); GI50 (HCT-116): > 100 µM (inactive); GI50 (COLO 205): > 100 µM (inactive); GI50 (HCC 2998): > 100 µM (inactive); GI50 (LOX IMVI): > 100 µM (inactive); GI50 (OVCAR-5): > 100 µM (inactive); GI50 (PC-3): > 100 µM (inactive)
